Results: patent US7083941B2, “Compositions and methods for gender sorting” (priority 2001, dated 2006)

What follows are molecules tested against T1, human estrogen receptor (Homo sapiens, UniProt P03372, G400V). Settings: not given.
T1 sequence (P03372 1-595 G400V): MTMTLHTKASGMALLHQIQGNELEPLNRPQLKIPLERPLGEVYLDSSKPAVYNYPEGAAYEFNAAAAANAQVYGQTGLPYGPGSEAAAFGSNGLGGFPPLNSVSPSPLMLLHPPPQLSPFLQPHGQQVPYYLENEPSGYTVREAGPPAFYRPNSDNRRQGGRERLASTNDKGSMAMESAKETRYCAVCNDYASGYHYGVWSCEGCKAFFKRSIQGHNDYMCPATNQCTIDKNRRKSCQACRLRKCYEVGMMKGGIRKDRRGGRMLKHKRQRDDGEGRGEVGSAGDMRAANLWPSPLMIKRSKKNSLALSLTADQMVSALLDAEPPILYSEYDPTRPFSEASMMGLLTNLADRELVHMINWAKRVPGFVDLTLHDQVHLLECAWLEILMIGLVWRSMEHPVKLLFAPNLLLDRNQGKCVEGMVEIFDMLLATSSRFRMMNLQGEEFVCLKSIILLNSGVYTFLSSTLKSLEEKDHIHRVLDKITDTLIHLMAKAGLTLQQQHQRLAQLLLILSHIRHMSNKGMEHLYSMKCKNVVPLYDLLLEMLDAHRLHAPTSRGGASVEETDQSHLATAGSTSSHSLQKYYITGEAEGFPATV

Row | Molecule | Percent Cross Reactivity
1 | 4-Hydroxytamoxifen | <0.25%

Same assay, conditions: cross-activity determined at concentration of 50% maximum potency; 17-β Estradiol = 100

Row | Molecule | Percent Cross Reactivity
2 | C[C@]12C[C@H](O)[C@H]3[C@@H](CCC4=CC(=O)CC[C@@]43C)[C@@H]1CC[C@@H]2C(=O)CO [Corticosterone] | <0.025%
3 | C#C[C@]1(O)CC[C@H]2[C@@H]3CCC4=Cc5oncc5C[C@]4(C)[C@H]3CC[C@@]21C [Danasol] | <0.025%
4 | C[C@]12CCC(=O)C=C1CC[C@@H]1[C@@H]2CC[C@]2(C)C(=O)CC[C@@H]12 [Androstenedione] | <0.05%
5 | C[C@]12CC[C@H]3[C@@H](CCC4=CC(=O)CC[C@@]43C)[C@@H]1CC[C@@H]2O [Testosterone] | <0.05%
6 | C[C@]12CC[C@@H]3c4ccc(O)cc4CC[C@H]3[C@@H]1C[C@@H](O)C2=O [16-Hydroxyestrone] | 4.0%
7 | CC(=O)[C@H]1CC[C@H]2[C@@H]3CCC4=CC(=O)CC[C@]4(C)[C@H]3CC[C@]12C [Progesterone] | <0.025%
8 | COc1cc2c(cc1O)CC[C@@H]1[C@@H]2CC[C@]2(C)C(=O)CC[C@@H]12 [2-Methoxyestrone] | <0.25%
9 | C[C@H]1CC(=O)C[C@@H]2CC[C@H]3[C@@H]4CC[C@H](O)[C@@]4(C)CC[C@@H]3[C@]21C [Mesterolone] | <0.05%
10 | C[C@]12CC[C@H](O)CC1=CC[C@@H]1[C@@H]2CC[C@]2(C)C(=O)CC[C@@H]12 [Dehydroepiandrosterone] | <0.05%
